Test results as given in US8716285B2, “N-hydroxy-benzamids for the treatment of cancer” (Hoffmann-La Roche Inc., priority 2010, dated 2014).

Tested on: RPMI-8226 cells
Experiment: Growth inhibitory synergy with Velcade, WST/CCK-8 assay
Format: cell-based
Settings: 72 h
Procedure: Cells were seeded in 96-well culture plates (200 μl/well at different seeding concentrations depending on cell type) and incubated overnight at 37° C. in 5% CO2. After adding compound dilutions to the cells (DMSO concentration kept below 0.5%), the cells were incubated at 37° C. in 5% CO2 for 72 hours. The effects on proliferation were determined by addition of CCK-8 reagent (Dojindo) according to the manufacturer's instruction, followed by incubation for 2 hours at 37° C. in 5% CO2, and finally recording the absorbance at 450 nm using an ELISA plate reader.
Novel compounds were tested for their synergistic effect with Velcade in multiple myeloma cells in vitro. Briefly, the multiple myeloma cells (RPMI-8226, OPM-2, or NCI-H929) were seeded into 96 well plate at 18000-20000 cells per well. The GI50s of these compounds against myeloma cells were measured by WST assay. […] The tested compound and Velcade used the same dilution factor in the combination treatment. […] After 72 h treatment, cell viability was measured at 450 nm by SpectraMAX190 after 2 h incubation with CCK8 reagent at 37° C. Synergy between the tested compounds and velcade was analyzed by software Calcusyn. […]
Notes: Chou and Talalay in 1983 proposed the designation of CI (combination index)=1 as the additive effect. […] It can be calculated by the equation above. […]

O=C(NO)c1ccc2c(c1)CC(Nc1nccc(-c3cccnc3)n1)CC2 (stereo not shown) [Example 24, 7-(4-Pyridin-3-yl-pyrimidin-2-ylamino)-5,6,7,8-tetrahydro-naphthalene-2-carboxylic acid hydroxyamide]
synergy with Velcade in cell growth inhibition: synergized with Velcade
